PMC4769319, “Cohesin Releases DNA through Asymmetric ATPase-Driven Ring Opening” (Molecular Cell, 2016)

Target: T1, Smc1/Smc3 heterodimer with Scc1-C (cohesin) (Saccharomyces cerevisiae, UniProt P32908+P47037, P47037:K38I, form not given)
T1 construct: N-terminal tags; Sf9 insect cells; fluorescently labelled for MST; with Sister chromatid cohesion protein 1
T1 sequence (P32908 1-1225): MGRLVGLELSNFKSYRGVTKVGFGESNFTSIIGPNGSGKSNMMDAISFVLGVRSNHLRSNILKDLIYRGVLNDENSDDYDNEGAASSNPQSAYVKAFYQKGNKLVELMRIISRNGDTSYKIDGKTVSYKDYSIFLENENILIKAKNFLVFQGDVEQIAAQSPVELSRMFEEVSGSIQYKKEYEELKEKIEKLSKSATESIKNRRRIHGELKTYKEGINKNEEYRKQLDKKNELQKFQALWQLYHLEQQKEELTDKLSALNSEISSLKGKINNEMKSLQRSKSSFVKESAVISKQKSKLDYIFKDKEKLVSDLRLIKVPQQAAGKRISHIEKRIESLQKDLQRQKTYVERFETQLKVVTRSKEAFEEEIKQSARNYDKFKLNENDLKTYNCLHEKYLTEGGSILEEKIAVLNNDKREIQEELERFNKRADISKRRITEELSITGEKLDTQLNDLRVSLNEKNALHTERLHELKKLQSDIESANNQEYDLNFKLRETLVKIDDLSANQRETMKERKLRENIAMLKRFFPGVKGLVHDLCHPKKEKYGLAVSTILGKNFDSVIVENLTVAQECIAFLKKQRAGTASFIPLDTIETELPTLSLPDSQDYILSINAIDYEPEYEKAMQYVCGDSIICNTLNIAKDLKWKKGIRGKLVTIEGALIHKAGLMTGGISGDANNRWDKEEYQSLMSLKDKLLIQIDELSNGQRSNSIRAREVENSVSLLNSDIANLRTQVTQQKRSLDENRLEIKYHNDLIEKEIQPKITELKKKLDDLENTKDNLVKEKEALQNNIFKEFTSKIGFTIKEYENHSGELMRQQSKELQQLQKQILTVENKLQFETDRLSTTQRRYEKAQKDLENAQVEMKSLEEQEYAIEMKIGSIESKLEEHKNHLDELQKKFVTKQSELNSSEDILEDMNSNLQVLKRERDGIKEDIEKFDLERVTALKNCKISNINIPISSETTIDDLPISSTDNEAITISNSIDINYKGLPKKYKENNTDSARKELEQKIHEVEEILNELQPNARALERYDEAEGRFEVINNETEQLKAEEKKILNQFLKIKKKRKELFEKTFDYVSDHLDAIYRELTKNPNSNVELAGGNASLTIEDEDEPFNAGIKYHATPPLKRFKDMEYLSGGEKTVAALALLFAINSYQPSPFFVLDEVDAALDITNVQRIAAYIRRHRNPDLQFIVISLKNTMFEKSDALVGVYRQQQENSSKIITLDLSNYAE
T1 sequence (P47037 1-1230 K38I): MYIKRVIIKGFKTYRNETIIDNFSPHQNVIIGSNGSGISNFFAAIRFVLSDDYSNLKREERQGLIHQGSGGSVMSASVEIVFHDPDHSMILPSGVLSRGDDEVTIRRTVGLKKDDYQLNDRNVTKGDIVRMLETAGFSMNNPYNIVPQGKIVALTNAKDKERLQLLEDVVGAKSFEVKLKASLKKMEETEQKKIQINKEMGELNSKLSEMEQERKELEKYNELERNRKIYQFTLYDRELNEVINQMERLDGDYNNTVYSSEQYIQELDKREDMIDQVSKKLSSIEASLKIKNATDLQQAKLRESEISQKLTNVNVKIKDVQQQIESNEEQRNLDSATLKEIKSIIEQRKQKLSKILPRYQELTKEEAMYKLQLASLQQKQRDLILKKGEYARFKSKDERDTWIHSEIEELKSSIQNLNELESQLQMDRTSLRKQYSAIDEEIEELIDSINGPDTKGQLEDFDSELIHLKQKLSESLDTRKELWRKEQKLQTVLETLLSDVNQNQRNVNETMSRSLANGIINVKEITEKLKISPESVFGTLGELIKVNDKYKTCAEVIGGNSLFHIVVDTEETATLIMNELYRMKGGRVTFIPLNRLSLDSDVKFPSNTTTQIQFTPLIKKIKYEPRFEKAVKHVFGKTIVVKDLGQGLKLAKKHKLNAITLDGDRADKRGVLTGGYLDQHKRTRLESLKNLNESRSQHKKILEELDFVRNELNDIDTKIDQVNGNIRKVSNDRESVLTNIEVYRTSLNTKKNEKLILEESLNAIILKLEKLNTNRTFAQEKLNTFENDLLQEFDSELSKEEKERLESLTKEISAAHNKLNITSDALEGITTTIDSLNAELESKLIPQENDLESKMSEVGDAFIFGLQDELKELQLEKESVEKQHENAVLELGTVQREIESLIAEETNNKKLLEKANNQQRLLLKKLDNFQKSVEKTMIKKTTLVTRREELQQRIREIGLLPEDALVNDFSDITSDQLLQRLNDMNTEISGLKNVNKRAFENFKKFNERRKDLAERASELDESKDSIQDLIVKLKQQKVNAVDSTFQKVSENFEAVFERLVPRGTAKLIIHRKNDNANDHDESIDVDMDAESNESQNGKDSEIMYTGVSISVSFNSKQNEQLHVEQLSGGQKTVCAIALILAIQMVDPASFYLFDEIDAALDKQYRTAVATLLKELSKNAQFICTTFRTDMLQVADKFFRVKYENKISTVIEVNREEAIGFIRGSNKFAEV
T1 sequence (Q12158 1-566 partner): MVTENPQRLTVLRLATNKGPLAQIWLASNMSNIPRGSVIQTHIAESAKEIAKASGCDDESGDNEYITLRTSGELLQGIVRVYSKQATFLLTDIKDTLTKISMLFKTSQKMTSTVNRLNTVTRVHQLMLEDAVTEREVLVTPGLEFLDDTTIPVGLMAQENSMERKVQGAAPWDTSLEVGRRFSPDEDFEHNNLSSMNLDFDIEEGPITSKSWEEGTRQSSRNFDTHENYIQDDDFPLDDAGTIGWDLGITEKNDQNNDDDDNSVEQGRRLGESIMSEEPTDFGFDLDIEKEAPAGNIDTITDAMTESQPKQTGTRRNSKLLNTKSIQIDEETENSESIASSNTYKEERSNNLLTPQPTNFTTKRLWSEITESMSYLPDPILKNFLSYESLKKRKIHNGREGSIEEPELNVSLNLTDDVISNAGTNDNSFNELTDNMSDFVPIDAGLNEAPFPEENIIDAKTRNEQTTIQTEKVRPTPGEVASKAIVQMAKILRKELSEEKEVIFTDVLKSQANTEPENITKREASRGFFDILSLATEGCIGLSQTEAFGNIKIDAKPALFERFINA
Experiment: microscale thermophoresis
Conditions: fluorescently labelled protein; Smc1 co-purified with Scc1-C, plus Smc3; binding abrogated

Compound	microscale thermophoresis
Nc1ncnc2c1ncn2[C@@H]1O[C@H](COP(=O)(O)OP(=O)(O)OP(=O)(O)O)[C@@H](O)[C@H]1O [ATP]	each of the Walker A mutations efficiently abrogated binding to ATP and ADP
Nc1ncnc2c1ncn2[C@@H]1O[C@H](COP(=O)(O)OP(=O)(O)O)[C@@H](O)[C@H]1O [ADP]	each of the Walker A mutations efficiently abrogated binding to ATP and ADP
